Data from ChEMBL document CHEMBL1201862, “PubChem BioAssay data set” (2004).
Activity calls are given as the source filed them.

How the values were obtained:
[1] = system: A-375; assay: MITF: Counter assay: A375 proliferation Measured in Cell-Based System Using Plate Reader - 2084-03_Inhibitor_Dose_DryPowder_Activity. [Related pubchem assays (depositor defined):AID488944]; type: functional; details: Homo sapiens
[2] = system: A-375; assay: A375 melanoma cell viability reduction, dose response, counter-screen for MITF modulator project, cherry-pick samples, set 2 (AID 540335); type: functional, cell-based; details: Homo sapiens
[3] = molecular target: T1, Protein RecA (Mycobacterium tuberculosis, UniProt P9WHJ3); assay: Fluorescence Cell-Free Homogeneous Dose Retest to Identify Inhibitors of RecA-Intein Splicing Activity. [Related pubchem assays (depositor defined):AID2097, AID2223, AID489010, AID492950]; type: functional
T1 sequence (P9WHJ3 whole entry): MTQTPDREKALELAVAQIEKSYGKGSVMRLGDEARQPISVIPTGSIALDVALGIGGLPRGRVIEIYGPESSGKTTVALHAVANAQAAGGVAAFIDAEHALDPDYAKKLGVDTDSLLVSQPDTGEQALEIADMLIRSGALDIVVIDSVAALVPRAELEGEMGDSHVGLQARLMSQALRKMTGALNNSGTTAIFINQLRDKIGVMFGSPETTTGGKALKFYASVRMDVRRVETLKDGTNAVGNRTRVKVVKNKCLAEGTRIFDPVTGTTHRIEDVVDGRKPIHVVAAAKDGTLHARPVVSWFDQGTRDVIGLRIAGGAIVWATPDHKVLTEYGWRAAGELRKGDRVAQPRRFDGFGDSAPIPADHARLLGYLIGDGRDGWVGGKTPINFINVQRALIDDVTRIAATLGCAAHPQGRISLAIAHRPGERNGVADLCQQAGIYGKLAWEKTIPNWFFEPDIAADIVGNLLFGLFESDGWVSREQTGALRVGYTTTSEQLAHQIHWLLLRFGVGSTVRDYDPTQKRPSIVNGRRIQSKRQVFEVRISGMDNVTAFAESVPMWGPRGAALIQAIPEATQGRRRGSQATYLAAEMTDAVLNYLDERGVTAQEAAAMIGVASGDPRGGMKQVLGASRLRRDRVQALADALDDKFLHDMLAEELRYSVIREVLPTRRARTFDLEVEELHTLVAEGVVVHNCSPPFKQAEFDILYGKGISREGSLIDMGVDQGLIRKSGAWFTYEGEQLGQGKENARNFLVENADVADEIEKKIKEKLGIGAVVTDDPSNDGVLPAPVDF

[4] = molecular target: T2, Microphthalmia-associated transcription factor (Homo sapiens, UniProt O75030); assay: TRPM1 promoter luciferase signal decrease, dose response, MITF inhibitor project, cell-based, SK-MEL-5, cherry-picked, set 3 (AID 493073); type: functional
T2 sequence (O75030 whole entry): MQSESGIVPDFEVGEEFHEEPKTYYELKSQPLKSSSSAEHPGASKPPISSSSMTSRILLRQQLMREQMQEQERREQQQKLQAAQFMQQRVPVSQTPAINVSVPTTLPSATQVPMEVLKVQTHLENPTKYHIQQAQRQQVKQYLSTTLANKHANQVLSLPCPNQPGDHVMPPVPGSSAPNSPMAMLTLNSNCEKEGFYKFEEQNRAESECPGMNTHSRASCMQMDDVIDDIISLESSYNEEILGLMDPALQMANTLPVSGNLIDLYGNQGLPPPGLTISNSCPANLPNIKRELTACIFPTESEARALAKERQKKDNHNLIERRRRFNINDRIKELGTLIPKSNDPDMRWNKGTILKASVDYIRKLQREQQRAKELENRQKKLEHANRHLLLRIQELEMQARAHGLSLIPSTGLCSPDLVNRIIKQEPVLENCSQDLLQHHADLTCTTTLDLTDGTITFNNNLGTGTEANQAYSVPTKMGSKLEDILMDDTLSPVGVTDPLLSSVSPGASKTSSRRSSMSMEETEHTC

[5] = molecular target: T3, Replicative DNA helicase DnaB (Mycobacterium tuberculosis, UniProt P9WMR3); assay: DnaB intein splicing inhibitors, dose response, biochemical, cell-free fluorescence (AID 449749); type: functional
T3 sequence (P9WMR3 whole entry): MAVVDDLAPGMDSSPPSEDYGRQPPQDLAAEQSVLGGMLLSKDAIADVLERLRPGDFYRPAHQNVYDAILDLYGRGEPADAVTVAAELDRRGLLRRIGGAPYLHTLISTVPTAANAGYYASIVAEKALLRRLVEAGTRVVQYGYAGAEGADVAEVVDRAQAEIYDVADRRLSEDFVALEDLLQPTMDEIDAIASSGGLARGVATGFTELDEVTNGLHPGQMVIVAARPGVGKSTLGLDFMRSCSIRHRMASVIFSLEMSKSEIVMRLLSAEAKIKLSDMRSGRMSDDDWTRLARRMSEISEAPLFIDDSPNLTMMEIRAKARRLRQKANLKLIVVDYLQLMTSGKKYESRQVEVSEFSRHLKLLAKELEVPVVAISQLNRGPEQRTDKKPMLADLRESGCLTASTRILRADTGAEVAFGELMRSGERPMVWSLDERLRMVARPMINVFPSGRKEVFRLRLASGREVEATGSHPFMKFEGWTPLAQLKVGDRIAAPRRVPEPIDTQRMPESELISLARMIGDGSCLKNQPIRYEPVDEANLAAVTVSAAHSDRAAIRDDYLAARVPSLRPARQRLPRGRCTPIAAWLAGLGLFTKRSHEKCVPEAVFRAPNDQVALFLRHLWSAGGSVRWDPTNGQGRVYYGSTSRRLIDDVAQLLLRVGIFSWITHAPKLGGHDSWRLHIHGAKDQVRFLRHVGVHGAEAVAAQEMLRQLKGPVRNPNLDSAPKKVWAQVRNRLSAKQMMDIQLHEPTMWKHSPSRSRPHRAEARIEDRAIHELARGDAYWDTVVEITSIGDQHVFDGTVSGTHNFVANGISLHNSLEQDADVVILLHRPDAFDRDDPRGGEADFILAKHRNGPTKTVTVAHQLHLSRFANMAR

[6] = molecular target: Beta Lactamase (Pseudomonas aeruginosa, UniProt Q932Y6); assay: beta-lactamase reporter inhibitor potency, dose response, artefact control for TLR9-MyD88 binding inhibitor project, BLA reporter cells, FRET fluorescence (AID 588341); type: cell-based;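 also: cell based assay in CHO-K1 cells stably expressing beta-lactamase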
[7] = system: HEK293; assay: HEK cell cytotoxicity by LDH release, dose response, cytotoxicity control for IDE activator project, fluorescence, HEK cells (AID 588440); type: functional, cell-based; details: Homo sapiens;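 also: cytotoxicity by LDH release measuring loss of membrane integrity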
[8] = molecular target: T4, Insulin-degrading enzyme (Homo sapiens, UniProt P14735); assay: activators of endogenous IDE in HEK cells, dose response, cell-based, fluorescence polarization (AID 588439); type: functional
T4 sequence (P14735 whole entry): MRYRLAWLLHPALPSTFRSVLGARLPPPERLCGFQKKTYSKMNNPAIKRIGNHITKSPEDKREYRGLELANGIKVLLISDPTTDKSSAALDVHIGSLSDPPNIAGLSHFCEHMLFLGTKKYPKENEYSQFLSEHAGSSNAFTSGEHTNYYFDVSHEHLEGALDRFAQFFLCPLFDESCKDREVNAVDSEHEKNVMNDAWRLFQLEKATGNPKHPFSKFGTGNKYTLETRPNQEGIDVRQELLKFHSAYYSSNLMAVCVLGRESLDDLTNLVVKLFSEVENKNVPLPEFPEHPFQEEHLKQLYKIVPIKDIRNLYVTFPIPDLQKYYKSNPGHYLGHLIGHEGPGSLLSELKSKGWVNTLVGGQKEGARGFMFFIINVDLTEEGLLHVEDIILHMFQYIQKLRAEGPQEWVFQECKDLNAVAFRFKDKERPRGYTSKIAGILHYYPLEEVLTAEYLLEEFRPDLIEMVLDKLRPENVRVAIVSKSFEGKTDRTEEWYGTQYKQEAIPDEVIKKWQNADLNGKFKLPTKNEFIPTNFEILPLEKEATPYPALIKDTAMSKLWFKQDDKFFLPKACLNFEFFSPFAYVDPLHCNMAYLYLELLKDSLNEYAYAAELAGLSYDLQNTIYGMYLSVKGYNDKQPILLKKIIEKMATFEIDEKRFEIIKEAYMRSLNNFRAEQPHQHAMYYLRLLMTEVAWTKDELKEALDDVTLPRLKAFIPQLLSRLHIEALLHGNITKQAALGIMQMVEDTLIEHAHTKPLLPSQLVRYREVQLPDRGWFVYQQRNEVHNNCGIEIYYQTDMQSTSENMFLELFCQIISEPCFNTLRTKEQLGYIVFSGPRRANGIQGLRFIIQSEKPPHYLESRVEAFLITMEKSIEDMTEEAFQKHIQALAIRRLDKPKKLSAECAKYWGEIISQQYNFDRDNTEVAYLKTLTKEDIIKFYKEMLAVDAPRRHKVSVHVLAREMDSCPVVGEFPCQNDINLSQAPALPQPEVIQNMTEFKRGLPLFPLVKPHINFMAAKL

[9] = molecular target: T5, ORF 73 (Human herpesvirus 8, UniProt O40947); assay: inhibitors of C-LANA binding to LBS DNA, dose response, biochemical, fluorescence polarization, cherry-picked samples (AID 504725); parameters: species or system Human gammaherpesvirus 8;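 also: fluorescence polarization of a labeled DNA duplex reporting LANA DNA binding; potency is for inhibitors that block LANA binding to the DNA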
T5 sequence (O40947 whole entry): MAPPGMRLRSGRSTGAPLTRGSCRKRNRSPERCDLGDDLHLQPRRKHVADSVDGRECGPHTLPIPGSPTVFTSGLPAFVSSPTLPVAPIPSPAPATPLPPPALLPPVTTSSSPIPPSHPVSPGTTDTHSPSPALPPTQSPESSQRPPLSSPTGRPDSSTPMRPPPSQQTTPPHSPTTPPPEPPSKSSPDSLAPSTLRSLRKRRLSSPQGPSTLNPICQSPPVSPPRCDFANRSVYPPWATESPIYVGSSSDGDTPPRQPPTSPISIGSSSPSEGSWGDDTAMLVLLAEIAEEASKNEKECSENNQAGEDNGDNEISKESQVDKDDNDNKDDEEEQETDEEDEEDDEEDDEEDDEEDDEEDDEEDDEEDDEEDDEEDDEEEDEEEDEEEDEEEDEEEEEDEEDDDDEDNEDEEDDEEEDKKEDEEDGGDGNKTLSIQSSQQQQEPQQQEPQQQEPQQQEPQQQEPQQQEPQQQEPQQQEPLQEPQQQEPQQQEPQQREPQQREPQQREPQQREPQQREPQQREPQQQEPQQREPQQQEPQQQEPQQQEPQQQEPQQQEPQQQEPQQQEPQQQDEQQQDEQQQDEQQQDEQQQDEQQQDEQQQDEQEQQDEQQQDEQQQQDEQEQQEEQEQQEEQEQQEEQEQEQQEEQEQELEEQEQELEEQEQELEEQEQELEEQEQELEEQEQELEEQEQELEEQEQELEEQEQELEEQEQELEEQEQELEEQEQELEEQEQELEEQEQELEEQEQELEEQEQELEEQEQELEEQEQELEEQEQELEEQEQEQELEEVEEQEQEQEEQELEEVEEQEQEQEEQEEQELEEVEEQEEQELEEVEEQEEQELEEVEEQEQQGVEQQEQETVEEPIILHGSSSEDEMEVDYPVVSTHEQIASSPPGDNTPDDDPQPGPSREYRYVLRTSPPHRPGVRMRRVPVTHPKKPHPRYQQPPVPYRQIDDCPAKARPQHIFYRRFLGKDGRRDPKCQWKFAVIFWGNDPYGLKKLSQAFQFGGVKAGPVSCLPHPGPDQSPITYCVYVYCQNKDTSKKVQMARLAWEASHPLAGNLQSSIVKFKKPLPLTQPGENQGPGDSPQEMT

[10] = molecular target: T6, Rac GTPase-activating protein 1 (Homo sapiens, UniProt Q9H0H5); assay: MgcRacGAP GTPase-activating activity inhibitors, confirmation, biochemical, ADP Hunter fluorescence, primary and confirmatory (AID 624330); type: functional
T6 sequence (Q9H0H5 whole entry): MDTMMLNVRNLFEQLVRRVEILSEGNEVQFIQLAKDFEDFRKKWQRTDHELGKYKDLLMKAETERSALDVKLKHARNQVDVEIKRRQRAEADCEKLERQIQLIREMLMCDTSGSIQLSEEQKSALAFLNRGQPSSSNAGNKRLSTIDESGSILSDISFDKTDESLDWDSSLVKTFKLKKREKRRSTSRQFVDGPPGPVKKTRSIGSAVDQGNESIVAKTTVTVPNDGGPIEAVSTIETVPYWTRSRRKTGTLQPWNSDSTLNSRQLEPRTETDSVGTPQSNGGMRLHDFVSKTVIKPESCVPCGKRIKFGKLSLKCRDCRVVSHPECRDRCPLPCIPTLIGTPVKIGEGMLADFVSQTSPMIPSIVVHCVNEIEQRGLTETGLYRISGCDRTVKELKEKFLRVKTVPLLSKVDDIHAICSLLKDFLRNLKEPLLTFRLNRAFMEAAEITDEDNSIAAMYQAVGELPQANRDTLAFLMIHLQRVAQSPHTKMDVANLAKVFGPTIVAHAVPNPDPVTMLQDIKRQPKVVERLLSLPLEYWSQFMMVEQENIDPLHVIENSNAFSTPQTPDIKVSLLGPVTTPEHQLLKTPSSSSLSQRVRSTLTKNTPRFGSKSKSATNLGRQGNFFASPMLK

[11] = molecular target: T4, Insulin-degrading enzyme; assay: activators of recombinant IDE enzyme, dose response, counter-screen for IDE activator project, biochemical, fluorescence polarization (AID 588681)
[12] = system: HEK293; assay: optical interference in Abeta FP readout, dose response, artefact control for IDE activator project, biochemical, fluorescence polarization (AID 588442); type: functional, cell-based; details: Homo sapiens
[13] = molecular target: Dual specificity tyrosine-phosphorylation-regulated kinase 1A (Rattus norvegicus, UniProt Q63470); type: biochemical, Homo sapiens
[14] = molecular target: UDP-galactopyranose mutase (Mycobacterium tuberculosis, UniProt P9WIQ1); assay: Inhibitors of Mycobacterium tuberculosis UDP-galactopyranose mutase (UGM) enzyme Measured in Biochemical System Using Plate Reader - 2105-02_Inhibitor_Dose_CherryPick_Activity. [Related pubchem assays (depositor defined):AID504439]
[15] = molecular target: Keap1/Nrf2 (Homo sapiens, UniProt Q14145); assay: Keap1-Nrf2 protein-protein interaction inhibitors, dose response, biochemical, fluorescence polarization, cherry-picked samples (AID 588683)
[16] = molecular target: Large T antigen (Simian virus 40, UniProt P03070); type: functional, Betapolyomavirus macacae;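 also: Confirmatory-stage PubChem screen for compounds that inhibit SV40 T antigen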
[17] = system: CHO; assay: cytotoxicity in TLR9-MyD88 CHO cells, dose response, cytotoxicity control for TLR9-MyD88 binding inhibitor project, cell-based, luminescence (AID 588339); type: functional, hamster; details: Cricetulus griseus;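 also: CHO cells stably coexpressing TLR9 and MyD88 fusions from primary screen; compound exposure lasted 48 hours before viability readout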

Sequence of Beta Lactamase (Q932Y6 whole entry): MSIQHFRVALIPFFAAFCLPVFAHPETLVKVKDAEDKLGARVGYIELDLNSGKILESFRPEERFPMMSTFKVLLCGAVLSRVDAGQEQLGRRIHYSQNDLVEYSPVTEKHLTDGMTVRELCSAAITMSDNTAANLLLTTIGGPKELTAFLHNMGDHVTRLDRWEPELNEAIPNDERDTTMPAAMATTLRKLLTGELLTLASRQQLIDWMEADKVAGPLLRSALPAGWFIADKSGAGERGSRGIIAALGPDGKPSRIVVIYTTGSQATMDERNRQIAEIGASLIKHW
Sequence of Large T antigen (P03070 whole entry, the tested form may be a part): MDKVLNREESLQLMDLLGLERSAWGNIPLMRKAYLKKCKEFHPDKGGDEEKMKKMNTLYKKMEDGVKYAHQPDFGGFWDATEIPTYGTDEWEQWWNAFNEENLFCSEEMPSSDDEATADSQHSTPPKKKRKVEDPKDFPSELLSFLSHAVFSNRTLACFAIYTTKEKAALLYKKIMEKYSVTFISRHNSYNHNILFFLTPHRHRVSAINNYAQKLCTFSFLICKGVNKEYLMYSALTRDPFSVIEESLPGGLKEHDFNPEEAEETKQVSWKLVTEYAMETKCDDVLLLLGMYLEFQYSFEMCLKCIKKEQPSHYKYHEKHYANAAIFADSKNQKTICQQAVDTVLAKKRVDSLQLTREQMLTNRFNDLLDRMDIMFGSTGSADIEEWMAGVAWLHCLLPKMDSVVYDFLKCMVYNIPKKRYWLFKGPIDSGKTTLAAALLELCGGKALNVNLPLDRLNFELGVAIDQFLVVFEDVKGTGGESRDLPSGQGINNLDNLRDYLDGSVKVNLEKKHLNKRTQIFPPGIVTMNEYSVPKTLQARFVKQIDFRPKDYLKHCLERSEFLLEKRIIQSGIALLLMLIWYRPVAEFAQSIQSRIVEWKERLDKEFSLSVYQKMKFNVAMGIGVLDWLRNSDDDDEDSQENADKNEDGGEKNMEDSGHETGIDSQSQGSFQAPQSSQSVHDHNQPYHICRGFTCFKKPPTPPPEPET
Sequence of Keap1/Nrf2 (Q16236 whole entry): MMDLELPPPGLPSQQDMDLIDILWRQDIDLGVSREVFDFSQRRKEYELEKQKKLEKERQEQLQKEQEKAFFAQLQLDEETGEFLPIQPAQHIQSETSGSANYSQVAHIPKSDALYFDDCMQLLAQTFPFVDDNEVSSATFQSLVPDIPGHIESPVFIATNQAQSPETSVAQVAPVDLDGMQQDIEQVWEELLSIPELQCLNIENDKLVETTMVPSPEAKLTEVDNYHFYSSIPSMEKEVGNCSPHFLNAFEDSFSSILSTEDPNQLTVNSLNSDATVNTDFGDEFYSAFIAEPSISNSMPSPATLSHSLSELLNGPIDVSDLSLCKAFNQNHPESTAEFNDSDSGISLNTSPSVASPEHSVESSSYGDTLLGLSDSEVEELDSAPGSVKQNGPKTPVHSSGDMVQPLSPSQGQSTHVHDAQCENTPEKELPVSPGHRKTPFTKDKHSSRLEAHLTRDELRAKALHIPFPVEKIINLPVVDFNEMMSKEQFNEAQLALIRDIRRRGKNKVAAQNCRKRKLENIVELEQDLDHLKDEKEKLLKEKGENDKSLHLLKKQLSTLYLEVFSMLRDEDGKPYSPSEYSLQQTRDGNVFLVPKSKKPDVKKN
Sequence of Keap1/Nrf2 (Q14145 whole entry): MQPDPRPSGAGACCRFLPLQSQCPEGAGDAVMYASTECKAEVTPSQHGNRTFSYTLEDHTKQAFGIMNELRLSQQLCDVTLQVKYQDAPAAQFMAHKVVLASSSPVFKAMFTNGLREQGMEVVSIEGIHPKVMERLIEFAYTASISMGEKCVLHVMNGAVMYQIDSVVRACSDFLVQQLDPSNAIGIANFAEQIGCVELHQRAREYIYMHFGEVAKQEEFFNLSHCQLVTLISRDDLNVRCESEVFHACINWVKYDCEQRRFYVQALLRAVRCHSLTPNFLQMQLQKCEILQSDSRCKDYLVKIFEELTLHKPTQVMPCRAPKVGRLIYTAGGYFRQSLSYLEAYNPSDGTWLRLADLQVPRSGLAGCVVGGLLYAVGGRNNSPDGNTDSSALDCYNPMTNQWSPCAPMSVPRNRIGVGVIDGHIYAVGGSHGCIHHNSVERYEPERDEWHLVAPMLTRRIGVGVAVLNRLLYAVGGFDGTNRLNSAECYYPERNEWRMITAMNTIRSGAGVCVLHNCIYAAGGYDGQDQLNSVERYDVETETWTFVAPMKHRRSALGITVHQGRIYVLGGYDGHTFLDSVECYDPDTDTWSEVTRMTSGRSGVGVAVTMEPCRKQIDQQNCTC
Sequence of UDP-galactopyranose mutase (P9WIQ1 whole entry): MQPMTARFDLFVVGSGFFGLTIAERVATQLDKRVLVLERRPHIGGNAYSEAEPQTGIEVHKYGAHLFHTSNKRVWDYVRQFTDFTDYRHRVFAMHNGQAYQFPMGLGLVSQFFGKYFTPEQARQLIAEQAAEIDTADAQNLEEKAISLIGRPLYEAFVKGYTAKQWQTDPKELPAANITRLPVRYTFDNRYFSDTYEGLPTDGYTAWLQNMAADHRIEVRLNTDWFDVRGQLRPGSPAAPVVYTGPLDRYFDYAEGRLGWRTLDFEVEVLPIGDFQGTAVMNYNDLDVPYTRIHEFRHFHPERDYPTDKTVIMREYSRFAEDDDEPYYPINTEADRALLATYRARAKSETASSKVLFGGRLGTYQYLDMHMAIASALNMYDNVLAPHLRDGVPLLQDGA

Cc1c(C#N)c(NC(=O)CCl)n(Cc2cccs2)c1C
active: AC50 [1] > 35 µM | AC50 [2] > 35 µM | EC50 [3] 9.25 µM | AC50 [4] 7.07 µM | AC50 [5] 48 µM

CC1=NCCc2c1[nH]c1cc(O)ccc21
active: IC50 [6] 7.96 µM | AC50 [9] 1.76 µM | IC50 [10] 8.73 µM | AC50 [13] 3.13 µM | AC50 [14] 5.89 µM | AC50 [15] 4.36 µM | IC50 [16] 8.18 µM
inactive: IC50 [7] > 89.1 µM | EC50 [8] > 54.6 µM | EC50 [11] > 54.6 µM | EC50 [12] > 54.6 µM | IC50 [17] > 49.8 µM
